In US12503438B2, “Compounds for the treatment of kinase-dependent disorders” (Exelixis, Inc., priority 2019, dated 2025):

Target: T1, Mer (Homo sapiens, UniProt Q12866)
T1 construct: host or cells: 293A cells (Thermo Fisher #R70507)
T1 sequence (Q12866 21-999): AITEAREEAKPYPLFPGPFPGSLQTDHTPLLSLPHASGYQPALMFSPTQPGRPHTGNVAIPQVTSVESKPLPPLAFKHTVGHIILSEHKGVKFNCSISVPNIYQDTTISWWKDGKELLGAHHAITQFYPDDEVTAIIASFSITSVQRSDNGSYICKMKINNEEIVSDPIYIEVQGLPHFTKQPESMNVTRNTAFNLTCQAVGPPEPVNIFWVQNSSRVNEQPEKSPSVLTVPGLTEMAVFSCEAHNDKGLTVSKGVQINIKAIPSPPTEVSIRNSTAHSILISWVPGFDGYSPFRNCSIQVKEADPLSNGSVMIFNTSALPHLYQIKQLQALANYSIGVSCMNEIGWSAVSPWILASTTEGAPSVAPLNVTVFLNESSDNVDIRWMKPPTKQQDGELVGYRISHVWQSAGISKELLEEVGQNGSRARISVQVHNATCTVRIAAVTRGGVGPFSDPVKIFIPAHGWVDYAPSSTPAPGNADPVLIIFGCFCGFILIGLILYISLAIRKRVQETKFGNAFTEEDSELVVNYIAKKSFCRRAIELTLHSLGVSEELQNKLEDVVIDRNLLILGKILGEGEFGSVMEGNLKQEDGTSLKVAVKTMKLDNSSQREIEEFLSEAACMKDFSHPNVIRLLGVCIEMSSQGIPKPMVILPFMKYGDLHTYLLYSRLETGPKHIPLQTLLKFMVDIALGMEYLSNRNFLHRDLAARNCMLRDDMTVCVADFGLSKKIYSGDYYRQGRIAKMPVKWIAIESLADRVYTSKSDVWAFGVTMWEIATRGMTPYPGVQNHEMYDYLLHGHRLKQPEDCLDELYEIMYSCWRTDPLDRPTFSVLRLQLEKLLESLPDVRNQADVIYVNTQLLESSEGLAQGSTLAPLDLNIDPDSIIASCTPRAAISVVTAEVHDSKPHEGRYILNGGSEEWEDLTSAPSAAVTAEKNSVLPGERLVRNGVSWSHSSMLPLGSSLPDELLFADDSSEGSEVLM
Assay: Mer autophosphorylation ELISA in transient transfected 293A cells
Format: cell-based
Settings: cellular activity; MERTK-transfected 293A cells, phospho-Mer ELISA
How it was run: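 293A cells transiently transfected with human MERTK DNA, then treated 1 h with 8-point compound dilutions in serum-free medium (0.3% DMSO). Phospho-Mer in lysates quantified by sandwich ELISA against phospho-Mer standard; normalised to DMSO (100%) and reference inhibitor (0%), IC50 from 4-parameter logistic fit.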

| SMILES | IC50 |
| --- | --- |
| Cn1ccc(-c2ccc3c(Oc4ccc(NC(=O)C5(C(=O)Nc6ccc(F)cc6)CC5)cc4)ccnc3c2)cc1=O [Compound 117, 1-N′-(4-Fluorophenyl)-1-N-[4-[7-(1-methyl-2-oxopyridin-4-yl)quinolin-4-yl]oxyphenyl]cyclopropane-1,1-dicarboxamide] | 10 to 100 nM |
| O=C(Nc1ccc(F)cc1)C1(C(=O)Nc2cc(F)c(Oc3ccnc4cc(-c5cnn(C(F)F)c5)ccc34)cc2F)CC1 [Compound 118, 1-N′-[4-[7-[1-(Difluoromethyl)pyrazol-4-yl]quinolin-4-yl]oxy-2,5-difluorophenyl]-1-N-(4-fluorophenyl)cyclopropane-1,1-dicarboxamide] | 10 to 100 nM |
| Cn1cc(-c2ccc3c(Oc4ccc(NC(=O)C5(C(=O)Nc6ccc(F)cc6)CC5)cc4)ccnc3c2)ccc1=O [Compound 119, 1-N′-(4-Fluorophenyl)-1-N-[4-[7-(1-methyl-6-oxopyridin-3-yl)quinolin-4-yl]oxyphenyl]cyclopropane-1,1-dicarboxamide] | 10 to 100 nM |
| Cc1cc2c(Oc3ccc(NC(=O)C4(C(=O)Nc5ccc(F)cc5)CC4)cc3)ccnc2cc1-c1ncc[nH]1 [Compound 120, 1-N′-(4-Fluorophenyl)-1-N-[4-[7-(1H-imidazol-2-yl)-6-methylquinolin-4-yl]oxyphenyl]cyclopropane-1,1-dicarboxamide] | 10 to 100 nM |
| Cc1cc2c(Oc3cc(F)c(NC(=O)C4(C(=O)Nc5ccc(F)cc5)CC4)cc3F)ccnc2cc1-c1ncc[nH]1 [Compound 121, 1-N′-[2,5-Difluoro-4-[7-(1H-imidazol-2-yl)-6-methylquinolin-4-yl]oxyphenyl]-1-N-(4-fluorophenyl)cyclopropane-1,1-dicarboxamide] | 10 to 100 nM |
| Cc1cc2c(Oc3ccc(NC(=O)C4(C(=O)Nc5ccc(F)cc5)CC4)cc3F)ccnc2cc1-c1ncc[nH]1 [Compound 122, 1-N′-[3-Fluoro-4-[7-(1H-imidazol-2-yl)-6-methylquinolin-4-yl]oxyphenyl]-1-N-(4-fluorophenyl)cyclopropane-1,1-dicarboxamide] | 10 to 100 nM |
| O=C(Nc1ccc(F)cc1)C1(C(=O)Nc2ccc(Oc3ccnc4cc(-c5cnn(C(F)F)c5)ccc34)c(F)c2)CC1 [Compound 123, 1-N′-[4-[7-[1-(Difluoromethyl)pyrazol-4-yl]quinolin-4-yl]oxy-3-fluorophenyl]-1-N-(4-fluorophenyl)cyclopropane-1,1-dicarboxamide] | 10 to 100 nM |
| O=C(Nc1ccc(F)cc1)C1(C(=O)Nc2ccc(Oc3ccnc4cc(-c5cc6n(n5)CCC6)ccc34)cc2)CC1 [Compound 124, 1-N-[4-[7-(5,6-Dihydro-4H-pyrrolo[1,2-b]pyrazol-2-yl)quinolin-4-yl]oxyphenyl]-1-N′-(4-fluorophenyl)cyclopropane-1,1-dicarboxamide] | 10 to 100 nM |
